A value given as a limit tells only on which side of the number the result lay.

Data on two molecules can be found in patent US4824853A, “α,α-diaryl-4-aryl-4-hydroxy-1-piperidinebutanamide, N-oxides and method of treating diarrhea” (Janssen Pharmaceutica N.V., priority 1986, dated 1989).

The subject of one data set is tail withdrawal response. Put plainly: Tail Withdrawal Test in Rats. Format: in vivo, Female Wistar rats. Particulars: intravenous; for ED50: Rattus norvegicus, 55° C. water, response suppressed >10 seconds in 50% of animals, indicator of central effects. The protocol: Female Wistar rats were fasted overnight. Each animal was treated intravenously with the desired dose of the compound to be tested. The thus treated rats were put into individual restraining cages. After the administration of the test compound, the lower 5 cm portion of the tail was immersed into a cup filled with water at a constant temperature of 55° C. The typical tail withdrawal response was evaluated during a 10 seconds period after the immersion. ED50 values in mg/kg body weight were determined at that dose of the test compound capable of suppressing in 50% of the tested animals the typical tail withdrawal response during a time period exceeding 10 seconds.

Data set [1] is described as follows: Determination of the safety margin for the antidiarrheal action (LD50 / Castor Oil ED50). More on the design: species or system Female Wistar rats. Particulars: rat, in vivo; ratio LD50 / ED50 Castor Oil Test. The protocol:
(§1) The safety margin for the antidiarrheal action was determined as the ratio of the LD50 value to the ED50 value obtained in the Castor Oil Test. The antidiarrheal specificity was determined as the ratio of the ED50 value obtained in the Tail Withdrawal Test to the ED50 value obtained in the Castor Oil Test.

Data set [2] in a line: Determination of toxicity. Particulars: rat, in vivo; dose lethal in 50% of tested animals; route not stated. More on the design: species or system Female Wistar rats. The protocol:
Female Wistar rats were treated with the compound to be tested at various dose levels. LD50 values were determined as that dose in mg/kg body weight being lethal in 50% of the tested animals. Said LD50 values obtained for a compound of the present invention and for 4-(4-chlorophenyl)-4-hydroxy-N,N-dimethyl-α,α-diphenyl-1-piperidinebutanamide (i.e. loperamide) are also listed in table I. From these value it can be concluded that the compounds of the present invention show a decreased toxicity.

Data set [3] concerns diarrhea. The experiment in a line: Castor Oil Test in Rats. Type of data set: in vivo, Female Wistar rats. Particulars: Rattus norvegicus; intravenous, 1 h before 1 ml castor oil orally; diarrhea absent in 50% of animals 2 hours after castor oil. The protocol: Female Wistar rats were fasted overnight. Each animal was treated intravenously with the desired dose of the compound to be tested. One hour thereafter, the animal received 1 ml of castor oil orally. Each animal was kept in an individual cage and 2 hours after the castor oil treatment, the presence or absence of diarrhea was noted. The ED50 value was determined as that dose in mg/kg body weight, at which no diarrhea was present in 50% of the tested animals. Said ED50 -value for a compound of the present invention and for 4-(4-chlorophenyl)-4-hydroxy-N,N-dimethyl-α,α-diphenyl-1-piperidinebutanamide, which compound is generically designated as loperamide and which is described in U.S. Pat. No. 3,714,159, can be found in table I.

Data set [4] relates to diarrhea. The experiment in a line: Determination of the antidiarrheal specificity (Tail Withdrawal ED50 / Castor Oil ED50). Format: in vivo, Female Wistar rats. Particulars: ratio ED50 Tail Withdrawal Test / ED50 Castor Oil Test. The protocol:
as §1

What is called ED50 is the dose at which the effect has come halfway, by size or by number of responders. One may read the LD50 as the dose expected to kill half of the subjects tested. A high value points to lower toxicity. On to `CN(C)C(=O)C(CC[N+]1([O-])CCC(O)(c2ccc(Cl)cc2)CC1)(c1ccccc1)c1ccccc1` (stereo not drawn) [Compound 1, trans-4-(4-chlorophenyl)-4-hydroxy-N,N-dimethyl-α,α-diphenyl-1-piperidinebutanamide, N-oxide], for which the ED50 with tail withdrawal response is more than 20 mg/kg; in the data set with diarrhea [3] it was 0.21 mg/kg. Besides, in the data set with tail withdrawal response, the “typical tail withdrawal reflex antagonism (in words)” value was “does not show such activity”. For the same molecule, the selectivity ratio in data set [1] came to 135. The LD50 in data set [2] came to 28.3 mg/kg. Further, in the data set on diarrhea [4], the Antidiarrheal specificity is on record as more than 95.
`CN(C)C(=O)C(CCN1CCC(O)(c2ccc(Cl)cc2)CC1)(c1ccccc1)c1ccccc1` [loperamide, 4-(4-chlorophenyl)-4-hydroxy-N,N-dimethyl-α,α-diphenyl-1-piperidinebutanamide]: in the data set on tail withdrawal response, the ED50 is 2.83 mg/kg and the “typical tail withdrawal reflex antagonism (in words)” value is listed as “antagonizes the typical tail withdrawal reflex”. For the same molecule, the selectivity ratio in data set [1] is 62.3. In data set [2], this molecule came in with an LD50 of 5.92 mg/kg. Moreover, the ED50 in the data set with diarrhea [3] was determined as 0.095 mg/kg. Also, in the data set with diarrhea [4], the Antidiarrheal specificity was determined as 29.8.
